Entries after “also recorded” stand apart in the source; their conditions may differ.
Legend:
[1] = tested on: 123 annotated human PHD-containing domains; experiment: PHD finger domain microarray probed with biotinylated peptides (all domains); format: binding; details: for number of H3-interacting domains with preference for this state: out of 31 H3-binding domains; for binding on domain microarray: GST-PHD readers in duplicate on nitrocellulose slides, biotinylated peptide pre-labeled with streptavidin-Cy3
Text: To define the histone binding preferences of the PHD finger proteome, we expressed and purified 123 annotated human PHD-containing domains as GST-tagged recombinant fusions from E. coli. The recombinant proteins consisted of either PHD fingers in isolation, or as tandem domains if a given PHD finger was located adjacent to another reader domain (e.g., one or more PHD fingers, Tudor, chromo and/or bromodomains) (Additional file 1: Table S1). These GST fusions were printed in duplicate on nitrocellulose-coated microarray slides and probed with biotinylated peptides that represented the N-termini of H3, H4, H2A or H2B (Fig. 1a and Additional file 2: Figure S1). As the majority of PHD readers thus far characterized are H3K4me0/3 readers, we included additional peptides (H3K4 as either mono-, di-, or trimethylated) to further determine any H3K4 methyl preference (Additional file 2: Figure S2 and Fig. 1b). As a control, we also probed these microarrays with an α-Tubulin peptide (a.a. 30–50) that would not be predicted to interact with PHD fingers (Additional file 2: Figure S1). […] We also cannot exclude the possibility that some PHD fingers might not be functionally active on the microarrays (perhaps due to misfolding or the lack of an important adjacent region).
The protein domain microarray was designed to include 123 GST-tagged PHD-domain containing recombinant proteins. Protein domain microarray development and probing was as previously. Briefly, recombinant proteins were synthesized and cloned into pGEX-4T-1 vector by Biomatik Corporation. These GST-PHD readers were subsequently expressed, purified, and spotted in duplicate onto nitrocellulose-coated glass slides (Oncyte Avid slides, Grace Bio-Labs) using a pin arrayer (Aushon 2470, Aushon). For probing, microarray slides were blocked with 3% milk, 3% bovine serum albumin, 0.1% Tween 20 in PBS. Biotinylated peptides were pre-labeled with streptavidin-Cy3 fluorophore (GE Healthcare) and incubated with the blocked array slides. Slides were then washed with PBST and allowed to air dry. Fluorescent interactions were visualized using a GenePix 4200A Microarray Scanner (Molecular Devices).

CHD4 (PPCC) = experiment: dCypher AlphaScreen Phase B (full peptide screen); format: binding, human; details: reader 0.65 nM, 100 nM peptide, 23 °C, n = 2
Description: (§1) X-axes are log(protein concentration (M)) at constant peptide concentration (100 nM); Y-axes are AlphaScreen counts, representing relative strength of binding (n = 2; error bars are S.D.). i Heat map represents relative binding to H3 N-terminal peptides (left) by PHD-containing GST-tagged proteins (top) using the dCypher AlphaScreen platform. Protein concentrations can be found in Additional file 5: Table S4. Binding strength is indicated by color gradient from green to yellow (stronger to weaker). […] Alpha counts (n = 2) were normalized individually for each protein to the highest signal for each respective assay. For full dCypher peptide screen data, see Additional file 4: Table S3
(§2) Once the optimal protein concentration ranges for each of the eight readers were determined, we conducted the full dCypher peptide screen (293 histone peptides) (Fig. 3i; Additional file 4: Table S3).
(§3) The dCypher peptide screen assay was performed as previously described. Briefly, 5 μL of GST-tagged reader domains (optimal protein concentration for library screening determined by initial binding curves to candidate peptides) were incubated with 5 μL of 400 nM (100 nM Final) biotinylated histone peptides (EpiCypher) for 30 min at 23 °C in 1× AlphaLISA Epigenetics buffer + epigenetics buffer supplement (PerkinElmer, AL1008) in a 384-well plate. A 10 μL mix of 5 µg/mL (2.5 μg/mL final) glutathione Acceptor beads (PerkinElmer, AL109M) and 10 μg/mL (5 μg/mL final) streptavidin Donor beads (PerkinElmer, 6760002) was prepared in 1× [Epigenetics buffer + supplement] and added to each well. Plates were incubated at 23 °C in subdued lighting for 60 min and AlphaLISA signal measured on a PerkinElmer 2104 EnVision (680 nm laser excitation, 570 nm emission filter ± 50 nm bandwidth).
(§4) Supplementary file 13072_2020_328_MOESM4_ESM.xlsx: Additional file 4: Table S3. dCypher Results. Excel Tab Peptide Phase A is a compiled set of binding data: chromatin reader titration vs. several peptide targets. Data is presented as raw Alpha counts in duplicates at each concentration tested. Excel Tab Peptide Phase B is a compiled set of binding data: chromatin reader at optimized concentrations vs. entire 293 peptide library. Data is presented as the average and standard deviation of duplicates. […] Key: red = strong binding; blue = weak/no binding.

CHD5 (PPCC) = experiment: dCypher AlphaScreen Phase B (full peptide screen); format: binding, human; details: reader 5.2 nM, 100 nM peptide, 23 °C, n = 2
Description: as §1, §2, §3, §4

TRIM66 (PB) = experiment: dCypher AlphaScreen Phase B (full peptide screen); format: binding, human; details: reader 7 nM, 100 nM peptide, 23 °C
Description: as §1, §2, §3, §4

RAG2 = experiment: Histone peptide microarray; format: binding, human; details: GST-tagged RAG2, sheet Array Heatmap, each array performed twice, total n = 4
Procedure, shortened: (§5)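 Recombinant GST-PHD protein at 0.5 μM; 293-member modified histone peptide array; signals averaged from four repeats ± SD.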

MLL5 = experiment: Histone peptide microarray; format: binding, human; details: for Array Heatmap signal (histone peptide microarray): GST-tagged MLL5, sheet Array Heatmap, each array performed twice, total n = 4
Procedure, shortened: as §5

PHF2 = experiment: Histone peptide microarray; format: binding, human; details: GST-tagged PHF2, sheet Array Heatmap, each array performed twice, total n = 4
Procedure, shortened: as §5

DIDO1 = experiment: Histone peptide microarray; format: binding, human; details: GST-tagged DIDO1, sheet Array Heatmap, each array performed twice, total n = 4
Procedure, shortened: as §5

SP140L = experiment: Histone peptide microarray; format: binding, human; details: GST-tagged SP140L, sheet Array Heatmap, each array performed twice, total n = 4
Procedure, shortened: as §5

Row | Substance | binding (CHD5 (PPCC)) | Array Heatmap signal (histone peptide microarray) (RAG2) | Array Heatmap signal (histone peptide microarray) (MLL5) | Array Heatmap signal (histone peptide microarray) (PHF2) | Array Heatmap signal (histone peptide microarray) (DIDO1) | Array Heatmap signal (histone peptide microarray) (SP140L) | binding on domain microarray [1] | other results
1 | H3 (1-20): unmodified H3 N-terminal peptide (1–20) | preference for H3K4me0/1 | 0.2786 | 0.5452 | 0.5688 | 0.7104 | 0.461 | – | number of PHD-containing fusions with positive binding ([1]; of 123 PHD-containing fusions): 31; number of H3-interacting domains with preference for this state [1]: 10; binding (CHD4 (PPCC)): clearer specificity for the H3K4me0 peptide over the methylated species; binding (TRIM66 (PB); n = 2, listed as H3K4me0): preference for H3K4me0 and me1; also recorded: robust readers of H3K4me0 peptides
2 | H3K4me1: H3 1-20 [Peptide H3K4me1] | preference for H3K4me0/1 | 0.3065 | 0.5428 | 0.5242 | 0.6429 | 0.3684 | did not detect H3K4me1 to the same degree | binding (TRIM66 (PB); n = 2): preference for H3K4me0 and me1
3 | H3K4me2: H3 1-20 [Peptide H3K4me2] | – | 0.3888 | 0.5972 | 0.5474 | 0.6829 | 0.3615 | largely recognized equivalently | –
4 | H3K4me3: H3 1-20 [Peptide H3K4me3] | – | 0.3757 | 0.668 | 0.8051 | 0.7775 | 0.3018 | largely recognized equivalently | number of H3-interacting domains with preference for this state [1]: 18; binding preference (MLL5; peptide microarray, reader 0.5 μM, n = 4): strong preference for H3K4me3 over the un-, mono-, or di-methylated H3K4 peptides; also recorded: specific reader for H3K4me3
5 | H3K9ac: H3 1-20 [Peptide H3K9ac] | – | – | – | – | – | – | – | Array Heatmap signal (histone peptide microarray) (RAG2; listed as 2): 0.3184; Array Heatmap signal (histone peptide microarray) (RAG2; listed as 3): 0.2998; Array Heatmap signal (histone peptide microarray) (MLL5; listed as 2): 0.5361; Array Heatmap signal (histone peptide microarray) (MLL5; listed as 3): 0.5261; Array Heatmap signal (histone peptide microarray) (PHF2; listed as 2): 0.6188; Array Heatmap signal (histone peptide microarray) (PHF2; listed as 3): 0.5837; Array Heatmap signal (histone peptide microarray) (DIDO1; listed as 2): 0.6642; Array Heatmap signal (histone peptide microarray) (DIDO1; listed as 3): 0.7409; Array Heatmap signal (histone peptide microarray) (SP140L; listed as 2): 0.3674; Array Heatmap signal (histone peptide microarray) (SP140L; listed as 3): 0.3745
6 | H3K9me3: H3 1-20 [Peptide H3K9me3] | ability to bind to the peptides containing H3K9me3 | 0.2542 | 0.5674 | 0.5168 | 0.7537 | 0.3305 | – | binding (CHD4 (PPCC)): ability to bind to the peptides containing H3K9me3; binding (TRIM66 (PB); n = 2): ability to bind to the peptides containing H3K9me3
7 | H3S10p: H3 1-20 [Peptide H3S10p] | – | 0.2741 | 0.5416 | 0.4863 | 0.6622 | 0.3768 | – | –

Source: paper PMC6979384, “Characterization of the plant homeodomain (PHD) reader family for their histone tail interactions” (Epigenetics & Chromatin, 2020)
